Test results taken from article PMC12473906, “Comparing the Altis RepliGut Organoid System to MDCK Monolayers in Predicting the Oral Absorption of Lenalidomide” (Pharmaceutics, 2025).
Read-outs that look alike come from different tables or passages of the source.

What was measured:
[1] = test system: BCRP; parameters: method as in PMID 24627218; conditions: vesicles with BCRP; cited from earlier work
[2] = test system: gMDCK monolayers; experiment: gMDCK (P-gp knockout MDCK) monolayer permeability assay
[3] = cited from earlier work
[4] = cited from earlier work; remark: listed apart in the source
[5] = Lenalidomide pharmacokinetic study in rats (IV and oral); assay type: in vivo, Sprague Dawley rats; conditions: for AUC / Cmax / Tmax / half-life / bioavailability: plasma; for bioavailability: po
Description: All animal pharmacokinetic experiments were carried out by WuXi (Shanghai, China). Animals were kept on a light-dark cycle and allowed to eat and drink ad libitum. Animals receiving oral doses were fasted overnight. Animals’ condition and behavior were monitored throughout the experiment for signs of pain and distress. We utilized only male rats because similar pharmacokinetics in both genders was previously reported and no dosage adjustment is recommended based on gender, in order to reduce the number of animals required.
Male Sprague Dawley rats (230–280 g) (n = 3 per group) were administered lenalidomide (0.1, 1, 2, 10, and 50 mg/kg). The vehicles for oral and intravenous dosing were 0.6% methylcellulose A15 + 0.2% Tween 80 in water and 10% DMSO + 60% propylene glycol + 30% water, respectively. Serum samples were obtained prior to administration (predose) and at 0.033, 0.083, 0.25, 0.5, 1, 2, 4, and 6 h postdose from the IV group and at 0.083, 0.25, 0.5, 1, 2, 4, 8, and 24 h from the oral groups. Approximately 250 μL was collected at each time point via a catheter at the femoral artery from each rat into prechilled commercial K2-EDTA tubes on wet ice. Samples were centrifuged (3200× g for 10 min at 4 °C) within one hour of collection and frozen at −60 °C or lower before analysis. Approximately 5 mL of whole blood was collected from additional blank animals into prechilled commercial K2-EDTA tubes on wet ice and pooled to serve as blank plasma for bio-analysis. […] Animals were kept in metabolic cages to collect urine, feces, and bile at different periods after dosing. Wet ice was added during the whole collection process for urine and feces. Feces was homogenized in water, and the urine samples and feces homogenates were kept at −70 ± 10 °C until LC-MS/MS analysis. Pharmacokinetic parameters were calculated by non-compartmental methods, as described in Gibaldi and Perrier, using Phoenix® WinNonlin® version 8.5 (Certara L.P., Radnor, PA, USA).
The human equivalent dose (HED) was calculated based on the previously reported AUC after a typical dose in humans. The percentage of lenalidomide excreted in the feces/urine in 24 h was calculated by multiplying the fecal weight/urine volume by its measured lenalidomide concentration and dividing by the total amount of lenalidomide administered.(2) Percentage excreted in feces=100 · Feces weight ·Feces concentration /Dose volume ·Dose concentration (3) Percentage excreted in urine=100 · Urine volume ·Urine concentration /Dose volume ·Dose concentration
For the in vivo study, mass spectrometry detection of lenalidomide was accomplished using a SCIEX QTrap 6500+. Transition pairs used for quantification were as follows: lenalidomide (260.1 → 149.1 Da), labetalol (329.1 → 294.1 Da), indomethacin (357.9 → 139.0 Da), and loperamide (477.1 → 266.2 Da). Separation was achieved using a Waters Acquity UPLC system.
For urine samples, mobile phase A was 0.1% NH4OH and 2 mM NH4OAc in water/acetonitrile (v:v, 95:5), and mobile phase B was 0.1% NH4OH and 2 mM NH4OAc in acetonitrile/water (v:v, 95:5). Mobile phases were operated at the following gradient: initial, 1% B; 0–0.2 min, 1% B; 0.2–1, 30% B; 1–1.5, 100% B; 1.5–1.9, 100% B; 1.9–1.91, 1% B; and 1.91–2, 1% B. The column used was a Waters Acquity UPLC BEH C18 1.7 μm (2.1 × 50 mm) with flow rate of 0.6 mL/min and column oven temperature of 60 °C.
For plasma and feces samples, mobile phase A was 0.1% formic acid and 2 mM HCOONH4 in water, and mobile phase B was 0.1% formic acid and 2 mM HCOONH4 in acetonitrile/water (v:v, 95:5). Mobile phases were operated at the following gradient: initial, 1% B; 0–0.3 min, 1% B; 0.3–1.5, 30% B; 1.5–2.1, 95% B; 2.1–2.4, 95% B; 2.4–2.41, 1% B; and 2.41–2.5, 1% B. The column used was a Waters Acquity UPLC HSS T3 1.8 μm (2.1 × 50 mm) with a flow rate of 0.6 mL/min and a column oven temperature of 45 °C.
For in vivo studies, feces samples were homogenized at a ratio of 1 g feces to 9 mL buffer. […]

[6] = Sprague Dawley, rat, male rats, 0.1 mg/kg PO
[7] = Sprague Dawley, rat, male rats, 1 mg/kg IV
[8] = Sprague Dawley, rat, male rats, 2 mg/kg PO
[9] = Sprague Dawley, rat, male rats, 10 mg/kg PO
[10] = Sprague Dawley, rat, male rats, 50 mg/kg PO

Compound: Nc1cccc2c1CN(C1CCC(=O)NC1=O)C2=O (stereo not shown) [Lenalidomide]
- BCRP substrate [1]: not a BCRP substrate
- effect of 4% bovine serum albumin in the receiver side on apparent permeability ([2]; gMDCK, sink condition): did not increase
- effect of shaking gMDCK cells during the permeability assay on permeability ([2]; shaking transwell plate at 1000 rpm): did not significantly change
- Human Fa (fraction absorbed) [3]: 90% [21]
- Elimination half-life ([3]; humans): 180 to 300 min
- Metabolism ([3]; humans): < 5%
- Oral bioavailability ([3]; humans): > 90%
- Route of elimination ([3]; humans): Renal
- LogP (o/w) ([4]; Figure 1, ref PubChem): < 1
- pKa ([4]; lower pKa): 2.3
- LogP ([4]; ref PubChem): −0.40
- dose excreted ([5]; Sprague Dawley, rat, feces, male rats, 0.1 mg/kg PO, read-out: Fecal Recovery): 12%
- dose excreted ([5]; Sprague Dawley, rat, feces, male rats, 1 mg/kg IV, 24 h, read-out: Fecal Recovery): 3.2%
- dose excreted ([5]; Sprague Dawley, rat, feces, male rats, 2 mg/kg PO, read-out: Fecal Recovery): 12%
- dose excreted ([5]; Sprague Dawley, rat, feces, male rats, 10 mg/kg PO, read-out: Fecal Recovery): 10%
- dose excreted ([5]; Sprague Dawley, rat, feces, male rats, 50 mg/kg PO, read-out: Fecal Recovery): 16%
- AUC [5, 6]: 0.29 µM·h
- Cmax [5, 6]: 0.2 µM
- Tmax [5, 6]: 25.2 min
- half-life [5, 6]: 52.2 min
- Cmax [5, 7]: 4.9 µM
- Tmax [5, 7]: 1.8 min
- half-life [5, 7]: 72 min
- AUC ([5]; Sprague Dawley, rat, male rats, 1 mg/kg IV, serum, n=3): 2.34 µM·h
- AUC [5, 8]: 5.44 µM·h
- Cmax [5, 8]: 1.6 µM
- Tmax [5, 8]: 19.8 min
- half-life [5, 8]: 84 min
- AUC [5, 9]: 15.4 µM·h
- Cmax [5, 9]: 8.4 µM
- Tmax [5, 9]: 25.2 min
- half-life [5, 9]: 84 min
- AUC [5, 10]: 79.4 µM·h
- Cmax [5, 10]: 29 µM
- Tmax [5, 10]: 30 min
- half-life [5, 10]: 162 min
- dose excreted ([5]; Sprague Dawley, rat, urine, male rats, 0.1 mg/kg PO, read-out: Urinary Recovery): 47%
- dose excreted ([5]; Sprague Dawley, rat, urine, male rats, 1 mg/kg IV, 24 h, unchanged drug, read-out: Urinary Recovery): 87%
- dose excreted ([5]; Sprague Dawley, rat, urine, male rats, 2 mg/kg PO, read-out: Urinary Recovery): 45%
- dose excreted ([5]; Sprague Dawley, rat, urine, male rats, 10 mg/kg PO, read-out: Urinary Recovery): 48%
- dose excreted ([5]; Sprague Dawley, rat, urine, male rats, 50 mg/kg PO, read-out: Urinary Recovery): 43%
- BA ([5]; male rats, 0.1 mg/kg PO): 122%
- BA ([5]; male rats, 1 mg/kg IV (reference)): 100%
- BA ([5]; male rats, 2 mg/kg PO): 116%
- BA ([5]; male rats, 10 mg/kg PO): 66.0%
- BA ([5]; male rats, 50 mg/kg PO): 67.9%
- dose excreted ([5]; male, Sprague Dawley, rat, feces, rats, across oral doses, read-out: fecal recovery): ~12%
- bioavailability ([5]; male, Sprague Dawley, rat, rats, all doses): 68 to 120%
- bioavailability ([5]; male, Sprague Dawley, rat, rats, low doses): > 100%
- Tmax ([5]; male, Sprague Dawley, rat, rats, across oral doses): ~30 min
- CL renal ([5]; male, Sprague Dawley, rat, urine and plasma, iv, 1 mg/kg, read-out: CLR (renal clearance)): 24 mL/min/kg
- dose excreted ([5]; male, Sprague Dawley, rat, urine, rats, all oral doses, read-out: Urinary recovery): ~45%
- Human Equivalent Dose ([5]; rat 2 mg/kg PO): ~26 mg
- Human Equivalent Dose ([5]; rat 10 mg/kg PO): ~73 mg
- Human Equivalent Dose ([5]; rat 50 mg/kg PO): ~376 mg
